Entries after “also recorded” stand apart in the source; their conditions may differ. [ ]: non-standard residue; d: D form. The star is where a group is joined. FITC = O=C1OC2(c3ccc(O)cc3Oc3cc(O)ccc32)c2ccc(NC(=S)*)cc21; Dap = NC[C@H](N)C(=O)O
Key:
[1] = target: GCN5 (Homo sapiens, UniProt Q92831); experiment: Acetyltransferase assay with acetyl-CoA analogs and H3 (1-20) peptide (MS); conditions: GCN5 with H3 (1-20) peptide, mass spectrometric analysis
[2] = target: MYST2 (Homo sapiens, UniProt O95251); experiment: Acetyltransferase assay with acetyl-CoA analogs and H4 (1-20) peptide (MS); conditions: MYST2 with H4 (1-20) peptide, mass spectrometric analysis
Sequence of MYST2 (O95251 whole entry): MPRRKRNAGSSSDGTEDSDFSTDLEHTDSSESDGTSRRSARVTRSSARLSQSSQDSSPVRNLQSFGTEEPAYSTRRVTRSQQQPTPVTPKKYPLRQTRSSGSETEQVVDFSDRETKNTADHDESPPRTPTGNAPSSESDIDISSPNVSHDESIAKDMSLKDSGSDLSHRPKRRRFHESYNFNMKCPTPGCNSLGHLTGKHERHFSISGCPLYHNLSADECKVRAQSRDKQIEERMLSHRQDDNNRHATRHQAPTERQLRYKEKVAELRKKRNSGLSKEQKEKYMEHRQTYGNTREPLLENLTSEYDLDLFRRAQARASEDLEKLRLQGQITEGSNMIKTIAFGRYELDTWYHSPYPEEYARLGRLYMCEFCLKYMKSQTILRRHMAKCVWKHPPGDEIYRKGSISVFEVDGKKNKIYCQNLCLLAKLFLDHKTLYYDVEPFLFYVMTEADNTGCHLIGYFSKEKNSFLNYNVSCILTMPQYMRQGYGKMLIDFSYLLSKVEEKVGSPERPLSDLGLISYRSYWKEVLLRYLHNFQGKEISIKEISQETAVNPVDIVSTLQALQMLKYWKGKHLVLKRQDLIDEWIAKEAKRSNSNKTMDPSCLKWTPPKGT

[3] = target: TIP60 (Homo sapiens, UniProt Q92993); experiment: as above; conditions: TIP60 with H4 (1-20) peptide, mass spectrometric analysis
Sequence of TIP60 (Q92993 whole entry): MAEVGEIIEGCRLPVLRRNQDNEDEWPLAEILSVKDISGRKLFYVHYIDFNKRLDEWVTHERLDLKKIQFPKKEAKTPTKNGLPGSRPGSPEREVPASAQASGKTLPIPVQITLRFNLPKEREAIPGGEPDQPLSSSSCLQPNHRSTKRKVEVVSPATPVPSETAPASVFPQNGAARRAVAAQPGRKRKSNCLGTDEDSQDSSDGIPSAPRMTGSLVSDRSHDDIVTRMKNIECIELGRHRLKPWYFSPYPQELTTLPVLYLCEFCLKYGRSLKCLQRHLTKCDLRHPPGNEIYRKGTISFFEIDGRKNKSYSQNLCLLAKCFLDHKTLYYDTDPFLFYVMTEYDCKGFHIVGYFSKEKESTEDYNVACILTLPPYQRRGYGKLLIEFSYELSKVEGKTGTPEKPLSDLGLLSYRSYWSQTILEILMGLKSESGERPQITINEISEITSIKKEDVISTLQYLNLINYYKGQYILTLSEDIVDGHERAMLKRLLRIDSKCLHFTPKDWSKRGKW

[4] = Bioorthogonality of the fluorine-thiol displacement reaction: incubation with glutathione or cysteine (1H NMR); format: physicochemical; conditions: 25 mM each, pH 8.5, 37° C., 24 h
Description: Bioorthogonality of the Fluorine-Thiol Displacement Reaction (FIG. 30) The common substrate 2-fluoro-N-phenethylacetamide (compound (3)) was dissolved in MeOD as a 10× stock solution (250 mM). Sixty microliter of the stock was mixed with another 60 μL of either the reduced glutathione or cysteine 10× stock solution (250 mM in D2O). The mixture was added with additional deuterated solvents (1:1 mix of deuterated sodium phosphate buffer and MeOD) to make a final volume of 600 μL (pH adjusted to 8.5). The resulting solution was incubated at 37° C. water bath for 24 h, and then analyzed by ^1H NMR spectroscopy.

[5] = Stability and reactivity of model substrates and probes in cell lysates; conditions: human, pH 8.5
[6] = Measurement of FTDR reaction kinetics; format: physicochemical; conditions: DMF/Tris buffer (70/30), pH 8.5, 37° C.; 40, 80, 160 mM; average of three experiments
Description: Measurement of Reaction Kinetics: Reaction kinetics were evaluated similarly to reported procedures (Addy P S et al., 2017, J. Am. Chem. Soc., 139:11670-11673; Sundhoro M et al., 2017, Angew. Chem. Int. Ed. Engl., 56:12117-12121.). Stock solutions of substrate (3) and nucleophiles were prepared in DMF, while TCEP stock (pH 7.4) was dissolved in H2O. Equal concentrations (40 mM, 80 mM, or 160 mM) of the substrate and the nucleophile (3,4,5-trimethoxybenzenethiol or 2,4,6-trimethoxybenzenethiol) were mixed in 40 μL of DMF/Tris buffer (70/30). Over excess amount of TCEP (100 mM, 200 mM, or 400 mM) was added, and the final pH of the mixture was adjusted to 8.5 to initiate the reaction at 37° C. Time dependent measurements were carried out by taking 2 μL of the reaction mixture at indicated time points (30 min, 60 min, 90 min, 120 min, 150 min, 180 min), and mixing it with 18 μL 0.5% TFA/ACN to quench the reaction. The samples were eventually analyzed by LC/MS and the concentrations of product and reactant were determined by comparing peak area ratios with those of the standard curves. […]; t: reaction time; [X]t: concentration of either reactant at time t).

[7] = in vitro; conditions: human, pH 8.5
[8] = Hydrolysis of acetyl CoA and fluoroacetyl CoA (DTNB); format: physicochemical; conditions: 10 μM, 100 mM Tris buffer (pH 7.2)
Description: Hydrolysis of Acetyl CoA and Fluoroacetyl CoA: The hydrolysis rate of acetyl-CoA and fluoroacetyl CoA were measured in a similar manner to reported procedures (Weeks A M et al., 2010, Biochemistry, 49:9269-9279; Wagner G R et al., 2017, Cell Metab., 25:823-837). Briefly, 10 μM of the acetyl or fluoroacetyl CoA was incubated in 100 mM Tris buffer mixed with 0.5 mM DTNB, pH 7.2. The increase in the solution's absorbance at 412 nm was recorded, as a result of the reaction between DTNB and the free thiol in the released CoA hydrolysis product. A CoA standard curve was generated by measuring the absorbance of serially diluted CoA stock (200 μM) in the same assay buffer.

[9] = system: DLD-1 cells; experiment: Cell penetration assay of FITC-labelled Axin analogues (confocal imaging); format: cell-based; conditions: for cellular uptake by confocal fluorescence microscopy (in words): 10 μM; for Mean Intensity Ratio (cell penetration): 10 μM FITC-labelled peptide, 12 h, intracellular intensity of peptide 51 normalized as 1
Description: Cell Penetration Assay: DLD-1 cells were seeded on 35 mm optical dishes at 3e5 per well and were incubated overnight at 37° C./5% CO2. […] Cells were imaged in buffer mimicking the physiological conditions in the cytoplasm (20 mM HEPES, 110 mM KOAc, 5 mM NaOAc, 2 mM MgOAc, 1 mM EGTA, pH 7.3).

[10] = system: DLD-1 cells; conditions: then 10 μM peptide 4 h; for Mean Intensity Ratio, no pathway blocker: DLD-1 cells pretreated with solvent vehicle only, normalized as 1; for Mean Intensity Ratio, Chlorpromazine / Mean Intensity Ratio, Cytochalasin D / Mean Intensity Ratio, Nystatin / Mean Intensity Ratio, NaClO3: DLD-1 cells, ratio to no blocker; for Mean Intensity Ratio, Chlorpromazine: 1 h 5 μg/mL chlorpromazine (clathrin-dependent endocytosis); for Mean Intensity Ratio, Cytochalasin D: 1 h 10 μg/mL cytochalasin D (actin polymerization); for Mean Intensity Ratio, Nystatin: 1 h 25 μg/mL nystatin (caveolin-mediated endocytosis); for Mean Intensity Ratio, NaClO3: 1 h 80 mM NaClO3 (proteoglycan synthesis)
Description: Images were analyzed with NIH ImageJ software. […] Particles in the extracellular matrix that the “analyze particle” function selected were manually deselected and removed from the data set (FIG. 58B).
After this, the FITC-labelled peptide analogues were added at a final concentration of 10 μM, and the mixture was incubated at 37° C./5% CO2 for 4 h. […] After another round of washing, cells were imaged in the buffer as aforementioned. Subsequent CellTiter-Glo viability measurements were also performed right after confocal imaging.

[11] = system: DLD-1 cells; conditions: 10 μM, 12 h
Description: Cell Viability Assay: Wild type DLD-1 cells were cultured in complete growth media (RPMI, 10% FBS and 1% penicillin/streptomycin) at 37° C./5% CO2. After harvesting, cells were placed onto 96-well flat bottom white plates at 10e4 cells/well, and were incubated overnight. […] The chemiluminescent signals from the control sample (treated with 0 μM peptides) were used as the 100% control. […] For DLD-1 cells, after confocal imaging for the penetration pathway studies, viability measurements were carried out similarly via directly mixing with the CellTiter-Glo reagent. Cells treated with vehicle groups were also analyzed and counted as the 100% control.

[12] = target: T1, beta-catenin protein (Abcam, ab63175) (UniProt P35222 1-781, limits assumed); experiment: ELISA; beta-catenin coated on plate
T1 construct: Bought protein coated on the ELISA plate; also called β-catenin; target protein β-catenin
T1 sequence (looked up): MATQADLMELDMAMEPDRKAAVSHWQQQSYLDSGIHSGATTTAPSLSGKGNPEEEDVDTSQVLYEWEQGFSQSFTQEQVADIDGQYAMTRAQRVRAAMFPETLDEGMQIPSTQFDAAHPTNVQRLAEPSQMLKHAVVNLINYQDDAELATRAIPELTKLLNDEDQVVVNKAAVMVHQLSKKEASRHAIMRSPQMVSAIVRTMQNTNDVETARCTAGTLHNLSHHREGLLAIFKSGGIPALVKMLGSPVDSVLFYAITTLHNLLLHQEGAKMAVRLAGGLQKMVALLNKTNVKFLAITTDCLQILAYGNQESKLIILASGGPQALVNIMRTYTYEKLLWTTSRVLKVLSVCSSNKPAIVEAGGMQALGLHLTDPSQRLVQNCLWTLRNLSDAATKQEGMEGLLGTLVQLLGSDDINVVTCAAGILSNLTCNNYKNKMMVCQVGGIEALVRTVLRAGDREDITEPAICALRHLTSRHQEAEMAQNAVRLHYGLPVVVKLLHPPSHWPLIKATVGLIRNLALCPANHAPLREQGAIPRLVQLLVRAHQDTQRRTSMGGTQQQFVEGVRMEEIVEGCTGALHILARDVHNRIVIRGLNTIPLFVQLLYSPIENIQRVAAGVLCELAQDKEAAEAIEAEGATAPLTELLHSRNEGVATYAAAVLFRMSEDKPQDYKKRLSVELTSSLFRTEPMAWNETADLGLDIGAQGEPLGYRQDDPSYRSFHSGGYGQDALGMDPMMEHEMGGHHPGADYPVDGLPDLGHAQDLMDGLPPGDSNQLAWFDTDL

Sequence of GCN5 (Q92831 492-658 limits assumed): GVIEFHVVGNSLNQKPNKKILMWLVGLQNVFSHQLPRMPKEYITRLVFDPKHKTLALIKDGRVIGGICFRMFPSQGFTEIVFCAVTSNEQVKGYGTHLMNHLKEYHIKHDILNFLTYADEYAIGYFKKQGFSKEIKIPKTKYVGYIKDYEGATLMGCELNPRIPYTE

Which “labelling of histone peptide substrate by acetyltransferase” value (“labelling of histone peptide substrate” below) [1] does the source give for C#CCCC(=O)SCCNC(=O)CCNC(=O)[C@H](O)C(C)(C)COP(=O)(O)OP(=O)(O)OCC1OC(n2cnc3c(N)ncnc32)C(O)C1OP(=O)(O)O (stereo partly shown) [Peptide 4-PY-CoA, 4-pentynoyl CoA] here?
Its value is “failed to incorporate”.

What about the “labelling of histone peptide substrate” value [2] of the same molecule?
Its value is “failed to incorporate”.

And the “labelling of histone peptide substrate” value [3]?
The value was “failed to incorporate”.

Which reactivity with cysteine [4] does the source give for O=C(CF)NCCc1ccccc1 [Peptide 3] here?
Its reactivity with cysteine is “no reaction was observed; also recorded: stable”.

What about the reactivity with glutathione [4] of the same molecule?
The reactivity with glutathione was “no reaction was observed; also recorded: stable”.

And the recovery at 14 h, 1 mM [5]?
The recovery at 14 h, 1 mM was 100%.

With COc1cc(OC)c(S)c(OC)c1 [Peptide 13] as the molecule, how does the “second order rate constant of FTDR reaction with (3) (2-fluoro-N-phenethylacetamide)” value [6] read?
The value was “(1.03±0.06)×10^−3 M^−1 S^−1”.

What about the recovery at 14 h, 1 mM [7] of the same molecule?
The recovery at 14 h, 1 mM was 61.8%.

Which “pseudo-first-order rate constant of hydrolysis” value [8] does the source give for CC(C)(COP(=O)(O)OP(=O)(O)OCC1OC(n2cnc3c(N)ncnc32)C(O)C1OP(=O)(O)O)[C@@H](O)C(=O)NCCC(=O)NCCSC(=O)CF (stereo partly shown) [F-Ac-CoA, fluoroacetyl-CoA] here?
Its value is 0.0075 s⁻¹.

And the “labelling of histone peptide substrate” value [1]?
Its value is “successful acetyl or acetyl analog labelling”.

What about the “labelling of histone peptide substrate” value [2] of the same molecule?
Its value is “successful acetyl or acetyl analog labelling”.

What about the “labelling of histone peptide substrate” value [3] of the same molecule?
Its value is “successful acetyl or acetyl analog labelling”.

For CC(=O)SCCNC(=O)CCNC(=O)[C@H](O)C(C)(C)COP(=O)(O)OP(=O)(O)OC[C@H]1O[C@@H](n2cnc3c(N)ncnc32)[C@H](O)[C@@H]1OP(=O)(O)O [Ac-CoA, acetyl-CoA], which “pseudo-first-order rate constant of hydrolysis” value [8] is on record?
Its value is 0.0002 s⁻¹.

And the “labelling of histone peptide substrate” value [1]?
The value was “successful acetyl or acetyl analog labelling”.

And the “labelling of histone peptide substrate” value [2]?
The value was “successful acetyl or acetyl analog labelling”.

What about the “labelling of histone peptide substrate” value [3] of the same molecule?
The value was “successful acetyl or acetyl analog labelling”.

With CC[C@H](C)[C@@H]1NC(=O)[C@@H](NC(=O)[C@H](CCC(N)=O)NC(=O)[C@@H]2CCCN2C(=O)[C@H](Cc2c[nH]c3ccccc23)NC(=O)[C@H](CCCNC(=N)N)NC(=O)COCCOCCNC(=S)Nc2ccc3c(c2)C(=O)OC32c3ccc(O)cc3Oc3cc(O)ccc32)CNC(=O)CSCc2cccc(c2)CSCC(=O)NC[C@@H](C(=O)N[C@@H](Cc2c[nH]cn2)C(=O)N[C@H](C(=O)N[C@@H](CCCNC(=N)N)C(=O)N[C@@H](CCCNC(=N)N)C(=O)N[C@H](C(=O)N[C@@H](Cc2c[nH]c3ccccc23)C(=O)N[C@@H](CCCNC(=N)N)C(N)=O)C(C)C)C(C)C)NC(=O)[C@H](CC(=O)O)NC(=O)[C@H](CC(C)C)NC1=O [Peptide 48] as the molecule, how does the “cellular uptake by confocal fluorescence microscopy (in words)” value [9] read?
Its value is “significant cellular uptake”.

What about the “Mean Intensity Ratio (cell penetration)” value [9] of the same molecule?
Its value is 4.86±0.15.

What about the “Mean Intensity Ratio, no pathway blocker” value [10] of the same molecule?
The value was 1.00 ± 0.04.

And the “Mean Intensity Ratio, Chlorpromazine” value [10]?
Its value is 0.13 ± 0.01.

What about the “Mean Intensity Ratio, Cytochalasin D” value [10] of the same molecule?
The value was 0.10 ± 0.01.

And the “Mean Intensity Ratio, Nystatin” value [10]?
Its value is 1.16 ± 0.03.

And the “Mean Intensity Ratio, NaClO3” value [10]?
Its value is 0.12 ± 0.01.

And the “effect on cell viability” value [11]?
Its value is “did not affect the viability”.

For CC[C@H](C)[C@@H]1NC(=O)[C@@H](NC(=O)[C@H](CCC(N)=O)NC(=O)[C@@H]2CCCN2C(=O)[C@H](Cc2c[nH]c3ccccc23)NC(=O)[C@H](CCCNC(=N)N)NC(=O)COCCOCCNC(=S)Nc2ccc3c(c2)C(=O)OC32c3ccc(O)cc3Oc3cc(O)ccc32)CNC(=O)CSCc2cccc(c2)CSCC(=O)NC[C@H](C(=O)N[C@@H](Cc2c[nH]cn2)C(=O)N[C@H](C(=O)N[C@@H](CCCNC(=N)N)C(=O)N[C@@H](CCCNC(=N)N)C(=O)N[C@H](C(=O)N[C@@H](Cc2c[nH]c3ccccc23)C(=O)N[C@@H](CCCNC(=N)N)C(N)=O)C(C)C)C(C)C)NC(=O)[C@H](CC(=O)O)NC(=O)[C@H](CC(C)C)NC1=O [Peptide 50], which “cellular uptake by confocal fluorescence microscopy (in words)” value [9] is on record?
Its value is “significant cellular uptake”.

What about the “Mean Intensity Ratio (cell penetration)” value [9] of the same molecule?
Its value is 5.05±0.14.

What about the “Mean Intensity Ratio, no pathway blocker” value [10] of the same molecule?
Its value is 1.00 ± 0.02.

And the “Mean Intensity Ratio, Chlorpromazine” value [10]?
The value was 0.16 ± 0.01.

And the “Mean Intensity Ratio, Cytochalasin D” value [10]?
Its value is 0.99 ± 0.02.

What about the “Mean Intensity Ratio, Nystatin” value [10] of the same molecule?
The value was 0.17 ± 0.01.

What about the “Mean Intensity Ratio, NaClO3” value [10] of the same molecule?
Its value is 0.20 ± 0.01.

What about the “effect on cell viability” value [11] of the same molecule?
Its value is “did not affect the viability”.

Which “second order rate constant of FTDR reaction with (3) (2-fluoro-N-phenethylacetamide)” value [6] does the source give for COc1cc(S)cc(OC)c1OC [Peptide 12] here?
Its value is “(0.37±0.06)×10^−3 M^−1 S^−1”.

B1: FITC labelled fluoroacetamide containing L,L substrate (47), unstapled Axin-derived peptide analogue (peptide)
peptide: {FITC}-RWPQ[Dap](fluoroacetyl)ILD[Dap](fluoroacetyl)HVRRVWR-NH2
notes: also called peptide (47); unstapled peptide (47)
With B1 as the molecule, how does the EC50 [12] read?
Its EC50 is ~300 nM.
